# Assay results reported in US8318490B2, “Prelamin A pre peptide as a universal stem cell differentiation signal” (The Regents of the University of Colorado, a Body Corporate, priority 2006, dated 2012).
# Ends that are not written are not given here.
# Columns and labels:
# C2C12 cells = experiment: Chicken prelamin A peptide treatment of proliferating C2C12 cells, desmin immunostaining; format: cell-based, mouse; settings: 40 ug/ml
# Protocol: The chicken homologue of the human prelamin A peptide (SEQ ID NO: 17) was chemically synthesized and farnesylated and carboxymethylated. The lyophilized peptide was dissolved at 10 mg/ml in 50% DMSO/50% water. Actively proliferating C2C12 cells were treated with the chicken prelamin A peptide at 40 ug/ml on plastic chamber slides in complete DMEM media containing 10% fetal bovine serum (FBS). After 20 hours the cells were fixed in methanol/acetone and then immunostained with a rabbit anti-desmin primary antibody and a Texas Red conjugated anti-rabbit secondary antibody. Cover slips were mounted with media containing DAPI.
# NIH3T3-L1 preadipocytes = experiment: Chicken prelamin A peptide treatment of preadipocytes, oil red O staining; format: cell-based; settings: 72 hours
# From the text: Based on the change in morphology and the oil red 0 staining, the chicken peptide induces the differentiation of NIH3T3-L1 cells into adipocytes.
# [1] = tested on: H9c2 rat cardiac myoblasts; experiment: Prelamin A pre peptide treatment of H9c2 cardiac myoblasts, desmin immunostaining; format: cell-based
# Protocol: (§1) Cells and transfections. C2C12 and H9C2 cells were cultured in Growth Media (GM) defined as DMEM containing 10% (vol/vol) fetal bovine serum supplemented with Lglutamine, HEPES, non-essential amino acids and antibiotics. Effectene (Qiagen) was used to transfect plasmid DNA into cells following the manufacturer's instructions. Nondifferentiating transfected cells were allowed to continue growing for an additional 24 h before being processed for microscopy, or until confluent for protein isolation.
# (§2) Microscopy. Cells were fixed in cold 70% methanol/30% acetone solution for 10 min. Immunostaining was performed with anti-human lamin A/C (Novocastra), anti-prelamin A (Santa Cruz), or anti-desmin (Sigma) primary antibodies followed by the appropriate fluorescently labeled secondary antibody and mounting in anti-fade media containing DAPI (Vector Laboratories). Images were captured on an Olympus IX81 inverted microscope with Olympus objectives (U PLAN APO 10× oil N.A. 0.40, UAPO 40× oil N.A. 1.35, TIRFM PLAN APO 60× oil N.A. 1.45 WD 0.15 mm) and a Hamamatsu ORCA IIER monochromatic CCD camera and Intelligent Imaging Slidebook software. Images were also acquired on an Olympus IX70 Infinity inverted microscope with Olympus objectives (100× U PLAN APO, N.A. 1.35, W.D. 0.1 mm, oil; 20× U PLAN Fluorite, N.A. 0.5) with a Photometrics Quantix cooled CCD camera using Deltavision software. Signal strengths for the individual channels were adjusted using Adobe Photoshop strictly for improving the overall signal to noise ratio.
# These cells were previously considered to be of cardiac lineage in part because they express heart-specific L-type calcium channels after prolonged exposure to retinoic acid during serum starvation induced differentiation (24). However, differentiation of H9c2 cells in culture has previously led to fusion and multinucleate myotube formation more resembling skeletal myotubes than cardiac myocytes.
# Higher order intra- and intercellular organization is clearly evident in visible striations in the desmin staining pattern. […]
# ES cells = experiment: Peptide treatment of embryonic stem cells, staining for tubulin, pre peptide, DAPI; format: cell-based; settings: 1 μg/ml, 6 hours
# From the text: ES cells were contacted with the prelamin A pre peptide (courtesy of Dr. Chris Hogan, University of Colorado).
# FIGS. 14A-14C show a 10× control. The ES cells have round distinct nuclei and are expressing tubulin. The prelamin A signal is primarily in extracellular aggregates, though nuclear staining can also be detected.
# C2C12 myoblasts = experiment: Prelamin A pre peptide treatment of mitotically dividing C2C12 myoblasts, microscopy/immunostaining; format: cell-based, mouse
# Protocol: as §1
# Peptide synthesis. The farnesylated and carboxymethylated prelamin A C-terminal peptide N-LLGNSSPRTQSPQNC-C (SEQ ID NO:2) was generated by FMOC solid phase peptide synthesis, and farnesylated and carboxymethylated (Biosynthesis). The peptide was analyzed on a C4 column and by laser desorption mass spectrometry. The lyophilized peptide was resuspended in DMSO.
# as §2
# The farnesylated and carboxymethylated prelamin A pre peptide was chemically synthesized, and mitotically dividing C2C12 myoblasts were treated with the peptide at 1, 10 and 25 μg/ml in complete growth media containing 10% FBS.
# fibroblasts = experiment: Peptide exposure of homogeneous fibroblast cultures; format: cell-based
# [2] = tested on: neonatal rat cardiac myocytes (NRMCs); experiment: Peptide treatment of neonatal rat cardiac myocytes (NRMCs); format: cell-based
# From the text: Consequently, the prelamin A pre peptide not only determines tissue organization amongst the same type of cells, but also intracellular organization between different cell and tissue types.
# [3] = tested on: Mouse F9 embryonic carcinoma cells; experiment: Peptide treatment of F9 embryonic carcinoma cells, lamin A/C, keratin 8, DAPI staining; format: cell-based; settings: two days
# Protocol: Mouse F9 embryonic carcinoma cells were treated with the prelamin A peptide for two days (FIGS. 19D-19F) and then were fixed, immunostained for lamin A/C expression (FIGS. 19A and 19D) and keratin 8 expression (FIGS. 19B and 19E), and stained for DNA with DAPI (FIGS. 19C and 19F). Keratin 8 and lamin A/C co-localize in all cells. […] Both keratin 8 and lamin A/C display distinct perinuclear filamentous staining, with greater expression towards the center of cell colonies than the periphery, in untreated F9 cells. […] The treated cells display a DNA morphology consistent with expansion of DNA into […]. Furthermore, cells at the edges of the treated colonies display altered cell morphology and are extending away from the colony, and intercellular spacing in the treated cell colonies has clearly been expanded.
# H9c2 cells = experiment: Western blots of peptide-treated H9c2 cells; format: cell-based, rat; settings: Western blot
# Protocol: Western blots. Cells were lysed in cell buffer (1% Triton X-100, 20 mM Tris-Cl, 7.5, 10 mM NaCl, 5 mM MgC2) containing 46 μg/ml leupeptin, 10 μg/ml aprotinin, and 250 μg/ml AE-BSF for 10 min on ice. Total protein concentration was determined using BioRad Protein Assay reagent and equal amounts of total protein were loaded in each lane. Western blots were probed with anti-lamin A/C (Novocastra, Santa Cruz), antiprelamin A (Santa Cruz) and anti-myogenin (Santa Cruz) primary antibodies and HRP-conjugated secondary antibodies (Santa Cruz, Pierce). Secondary antibody detection was performed using Super signal HRP (Pierce).
# Higher order intra- and intercellular organization is clearly evident in visible striations in the desmin staining pattern. […] As in serum starvation induced differentiation of H9c2 myoblasts (26), an increase in the myogenic transcription factor myogenin is seen upon peptide treatment (FIG. 5F).
# neuroblastoma = experiment: Peptide application to neuroblastoma cells (data not shown); format: cell-based
# Mouse neural stem cells = experiment: Peptide treatment of mouse neural stem cells, lamin A/C, tubulin, DAPI staining; format: cell-based; settings: two days
# Protocol: Mouse neural stem cells were treated with the prelamin A peptide for two days (FIGS. 18D-18F) and were then fixed, immunostained for lamin A/C expression (FIGS. 18A and 18D) and tubulin expression (FIGS. 18B and 18E), and stained for DNA with DAPI (FIGS. 18C and 18F). […] Tubulin expression in untreated cells is cytoplasmic and relatively diffuse, and tubulin is excluded from the cell nucleus. In peptide-treated cells a distinct filamentous tubulin staining pattern is seen initiating at the cell nucleus and extending into the cell body.
# [4] = tested on: adult rabbit cardiac myocytes; experiment: Peptide treatment of adult rabbit cardiac myocytes; format: cell-based; settings: differentiated cells
substance,measurement,setting,value
"VLGGAGPRRQAPAPQGC (listed as Gallus gallus) [chicken prelamin A peptide, chicken homologue of the human prelamin A peptide, chemically synthesized]",cytoskeleton,"C2C12 cells; 20 hours, desmin staining",cytoskeleton formation
same,cell cycle,"C2C12 cells; within 20 hours, DMEM 10% FBS",induced cell cycle arrest
same,morphogenesis and fusion,"C2C12 cells; within 20 hours, DMEM 10% FBS",myoblast morphogenesis and fusion
same,differentiation,NIH3T3-L1 preadipocytes,differentiated into adipocytes
same,oil red O staining,NIH3T3-L1 preadipocytes,stained positively with oil red 0
"N-LLGNSSPRTQSPQNC-C (not fully specified (residue 15); also: farnesylated, carboxymethylated; listed as Homo sapiens) [prelamin A pre peptide, farnesylated and carboxymethylated prelamin A C-terminal peptide (human, 15 amino acids), made by FMOC solid phase peptide synthesis]",tissue formation,[1]; after 48 hours,formed a tissue sheet of mono- and binucleated cells interconnected by an extensive ECM
same,time to extracellular matrix formation,[1]; cardiac myoblasts contacted with peptide,≤ 5 min
same,extracellular matrix secretion,"[1]; within six hours, growth media containing 10% FBS",secrete an extensive desmin extracellular matrix (ECM)
same,DNA morphology,ES cells,changed drastically
same,secretion of pre peptide,ES cells,extensive secretion of the pre peptide
same,tubulin expression,ES cells,no longer any tubulin expression
same,cell morphogenesis,"C2C12 myoblasts; 1 μg/ml, six hours, complete growth media containing 10% FBS",cells have undergone morphogenesis into a bipolar configuration
same,desmin localization,"C2C12 myoblasts; 1 μg/ml, six hours, growth media 10% FBS",desmin can be seen localizing to the interface with the nuclear lamina and forming a filamentous skeleton at the locations where cells interact
same,desmin expression,C2C12 myoblasts; 6 hours after peptide exposure,desmin expression is either upregulated or redistributed
same,prelamin A matrix formation,C2C12 myoblasts; 6 hours after peptide exposure,prelamin A forms intra- and intercellular matrices
same,cell fusion,C2C12 myoblasts; 6 hours of peptide treatment,cell fusion can be seen
same,cell fusion / tissue formation,"C2C12 myoblasts; 72 hours, depending on cell density",the cells have fused to form either sheets or myotubes
same,time to induction of differentiation after contact with the peptide,C2C12 myoblasts; absence of conventional differentiation factors or cell confluence,within minutes
same,fusion of closely spaced myoblasts and cell death,C2C12 myoblasts; closely spaced myoblasts,induces fusion of closely spaced myoblasts into a syncicium which eventually results in cell death
same,effect of higher peptide concentrations,C2C12 myoblasts; higher concentrations of the peptide,cell fusion and myotube formations
same,concentrations inducing myoblast differentiation,C2C12 myoblasts; in vitro,micromolar and even nanomolar concentrations
same,ECM excretion,C2C12 myoblasts; low concentrations of the peptide,excrete ECM
same,effect on cell proliferation,"C2C12 myoblasts; peptide at 1, 10 and 25 μg/ml",dose-dependant effect on cell proliferation
same,polarization of nuclei,"C2C12 myoblasts; peptide at 1, 10 and 25 μg/ml",induces the kidney-shaped polarization of nuclei
same,effect of lower peptide concentrations,"C2C12 myoblasts; topical exposure, lower peptide concentrations","differentiation and morphogenesis representing a number of different cell types, and to intercellular interactions and tissue formation"
same,structural effect on fibroblasts,fibroblasts,underwent structural reorganization
same,cell fusion,"[2]; 10 ug/ml, six hours",a number of cells can be seen to have fused
same,cell morphology,"[2]; 10 ug/ml, six hours",show an elongated morphology
same,morphogenesis and fusion,"[2]; 25 ug/ml, 18 hours",more extensive myocytes morphogenesis and fusion is observed
same,fusion into myosheets,[2]; 72 hours of exposure,fused into beating myosheets
same,effect on fibroblasts and interaction between cell types,"[2]; fibroblasts adjacent to NRMCs, tubulin and actin staining",induces the differentiation of fibroblasts and fusion/cross-talk between different cell types
same,"cell and DNA morphology, intercellular organization, lamin A/C and keratin 8 expression",[3],"induces changes in cell morphology, DNA morphology, intercellular organization, and lamin A/C and keratin 8 expression"
same,cell proliferation,[3],severely inhibits cell proliferation
same,lamin A/C expression,H9c2 cells,modest increases
same,myogenin expression,H9c2 cells,increase
same,prelamin A expression,H9c2 cells,modest increases
same,effect on neuroblastoma cells,neuroblastoma,arrest and aggregation
same,cell appearance,Mouse neural stem cells,"taken on the appearance of nerve cells, including glial cells"
same,cell morphology and tubulin expression,Mouse neural stem cells,induced changes in cell morphology and tubulin expression
same,cell proliferation,Mouse neural stem cells,inhibited cell proliferation
same,cytoskeletal effect,[4],cytoskeletal rearrangements were induced and there was a dissolution of the actin cytoskeleton
